Tests used:
Venturia inaequalis = assay: Activity against apple scab in-vitro (VII); type: cell-based; conditions: 10 ppm, 10 days, 20° C., mycelial growth
Procedure, shortened: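 Compound in acetone was tested at 10 ppm final in half-strength Potato Dextrose Broth inoculated with V. inaequalis mycelial fragments and spores at 5×10^4 propagules/ml. After 10 days at 20° C, mycelial growth was rated against untreated or diluent controls.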

Rhizoctonia solani = assay: Activity against Rhizoctonia in-vitro (RSI); type: cell-based; conditions: 10 ppm, 10 days, 20° C., mycelial growth
Procedure, shortened: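 R. solani mycelial fragments (5×10^4/ml) in half-strength Potato Dextrose Broth with compound added from acetone to 10 ppm final. Mycelial growth assessed after 10 days at 20° C, rated against untreated or diluent control.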

Plasmopara viticola = assay: Antisporulant activity against vine downy mildew (PVA); type: in vivo; conditions: vine leaves, antisporulant foliar spray, 600 ppm, 750 l/ha
Procedure, shortened: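 Cabernet Sauvignon vines (~8 cm) inoculated on lower leaf surfaces with 5×10^4 zoosporangia/ml, held 24 h at 21° C high humidity then 24 h glasshouse. Infected leaves sprayed underside with 600 ppm compound in 1:1 water/acetone, 0.04% Tween 20, 750 l/ha; 96 h glasshouse, 24 h humidity. Sporulating leaf area rated versus control.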

[1] = test system: Pseudocercosporella herpotrichoides; assay: Activity against wheat eyespot in-vitro (PHI); type: cell-based; conditions: 10 ppm, 10 days, 20° C., mycelial growth
Procedure, shortened: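 P. herpotrichoides mycelial fragments (5×10^4/ml) grown in half-strength PDB with compound at 10 ppm final, added from acetone. Incubated 10 days at 20 °C; mycelial growth rated against untreated or diluent controls.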

Alternaria solani = assay: Activity against tomato early blight (AS); type: in vivo; conditions: Table VI; tomato seedlings, contact prophylactic foliar spray, 4 days
Procedure, shortened: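 Foliar contact prophylactic spray on tomato seedlings (cv Outdoor Girl, second true leaf expanded) in acetone/water 50:50 with 0.04% Tween 20; 24 h at 20° C, 40% R.H., then inoculation with 10^4 spores/ml A. solani conidia. Kept moist at 21° C; lesion cover rated 4 days post-inoculation against untreated or diluent-sprayed controls.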

[2] = test system: Erysiphe graminis f.sp. hordei; assay: Activity against barley powdery mildew, direct therapeutic (EGT); type: in vivo; conditions: direct therapeutic foliar spray, 600 ppm, up to 7 days
Procedure, shortened: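 Barley seedlings (cv. Golden Promise, single-leaf stage) were dusted with mildew conidia one day before a therapeutic foliar spray of 600 ppm compound. Plants were kept at 18 °C and 40% humidity for up to 7 days, and sporulating leaf area was rated against untreated or diluent-sprayed controls.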

Botrytis cinerea = assay: Direct protectant activity against broad bean grey mould (BCB); type: in vivo; conditions: direct protectant foliar spray, 600 ppm, 4 days
Procedure, shortened: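 Broad bean plants (cv The Sutton, two leaf pairs) sprayed on upper leaf surfaces at 600 ppm, then inoculated 24 h later with 10^6 conidia/ml. Kept 4 days at 22 °C, high humidity; disease control rated from % leaf area with lesions against untreated or diluent controls.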

Phytophthora infestans = type: in vivo; conditions: tomato, direct protectant foliar spray
Leptosphaeria nodorum = assay: Activity against wheat leafspot (LN); type: in vivo; conditions: direct therapeutic foliar spray, 600 ppm, 6-8 days
Procedure, shortened: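 Wheat cv Norman at single-leaf stage spray-inoculated with 1.5×10^6 conidia/ml, held 24 h at high humidity, then sprayed therapeutically with test compound at 600 ppm. Kept 6-8 days at 22° C, 70% humidity; lesion density per leaf rated against untreated or diluent-sprayed controls.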

Pyricularia oryzae = type: in vivo; conditions: rice seedlings, direct therapeutic foliar spray, 600 ppm, 4-5 days
[3] = test system: Erysiphe graminis f.sp. hordei; assay: Direct protectant activity against barley powdery mildew (EGP); type: in vivo; conditions: direct protectant foliar spray, 8 days
Procedure, shortened: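 Barley seedlings (cv Golden Promise, single-leaf stage) were foliar-sprayed, held 24 h at 18 °C/40% RH, then dusted with mildew conidia. After 8 days at 18 °C/40% RH, sporulating leaf area was scored as a rating against untreated or diluent-sprayed controls.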

SMILES	disease control rating VII (Venturia inaequalis)	disease control rating RSI (Rhizoctonia solani)	disease control rating PVA (Plasmopara viticola)	disease control rating PHI [1]	disease control rating AS (Alternaria solani)	disease control rating EGT [2]	disease control rating BCB (Botrytis cinerea)	disease control rating PIP (Phytophthora infestans)	disease control rating LN (Leptosphaeria nodorum)	disease control rating PO (Pyricularia oryzae)	disease control rating EGP [3]
CC(C)N(CCC1CCCCC1)C1COC2(CCC(C(C)(C)C)CC2)C1 (centres unmarked) [Compound 122]	0 (less than 50% disease control)	0 (less than 50% disease control)	0 (less than 50% disease control)	0 (less than 50% disease control)	0 (less than 50% disease control)	2 (greater than 80% disease control)	0 (less than 50% disease control)	0 (less than 50% disease control)	0 (less than 50% disease control)	2 (greater than 80% disease control)	2 (greater than 80% disease control)
CN(C1CCCCC1)C1COC2(CCC(C(C)(C)C)CC2)C1 (centres unmarked) [Compound 20]	1 (about 50-80% disease control)	0 (less than 50% disease control)	0 (less than 50% disease control)	0 (less than 50% disease control)	0 (less than 50% disease control)	2 (greater than 80% disease control)	0 (less than 50% disease control)	0 (less than 50% disease control)	0 (less than 50% disease control)	0 (less than 50% disease control)	2 (greater than 80% disease control)
CC(C)(C)c1ccc(NC2COC3(CCC(C(C)(C)C)CC3)C2)cc1 (centres unmarked) [Compound 24]	0 (less than 50% disease control)	0 (less than 50% disease control)	0 (less than 50% disease control)	0 (less than 50% disease control)	0 (less than 50% disease control)	0 (less than 50% disease control)	0 (less than 50% disease control)	0 (less than 50% disease control)	0 (less than 50% disease control)	0 (less than 50% disease control)	0 (less than 50% disease control)
c1ccc(CNC2COC3(CCCCC3)C2)cc1 (centres unmarked) [Compound 33]	0 (less than 50% disease control)	0 (less than 50% disease control)	0 (less than 50% disease control)	0 (less than 50% disease control)	0 (less than 50% disease control)	1 (about 50-80% disease control)	0 (less than 50% disease control)	0 (less than 50% disease control)	0 (less than 50% disease control)	0 (less than 50% disease control)	0 (less than 50% disease control)
CCCN(CCC1CCCCC1)C1COC2(CCC(C(C)(C)C)CC2)C1 (centres unmarked) [Compound 119]	1 (about 50-80% disease control)	0 (less than 50% disease control)	0 (less than 50% disease control)	1 (about 50-80% disease control)	0 (less than 50% disease control)	2 (greater than 80% disease control)	0 (less than 50% disease control)	0 (less than 50% disease control)	0 (less than 50% disease control)	0 (less than 50% disease control)	2 (greater than 80% disease control)
CCN(CCC1CCCCC1)C1COC2(CCC(C(C)(C)C)CC2)C1 (centres unmarked) [Compound 118]	1 (about 50-80% disease control)	1 (about 50-80% disease control)	2 (greater than 80% disease control)	1 (about 50-80% disease control)	0 (less than 50% disease control)	2 (greater than 80% disease control)	0 (less than 50% disease control)	0 (less than 50% disease control)	0 (less than 50% disease control)	0 (less than 50% disease control)	2 (greater than 80% disease control)
CCN(CC1(C)CCCCC1)C1COC2(CCC(C(C)(C)C)CC2)C1 (centres unmarked) [Compound 126]	1 (about 50-80% disease control)	0 (less than 50% disease control)	0 (less than 50% disease control)	0 (less than 50% disease control)	0 (less than 50% disease control)	2 (greater than 80% disease control)	0 (less than 50% disease control)	0 (less than 50% disease control)	0 (less than 50% disease control)	0 (less than 50% disease control)	2 (greater than 80% disease control)
CC(C)(C)C1CCC2(CC1)CC(NCc1cccnc1)CO2 (centres unmarked) [Compound 47]	1 (about 50-80% disease control)	0 (less than 50% disease control)	0 (less than 50% disease control)	0 (less than 50% disease control)	2 (greater than 80% disease control)	2 (greater than 80% disease control)	0 (less than 50% disease control)	0 (less than 50% disease control)	0 (less than 50% disease control)	0 (less than 50% disease control)	2 (greater than 80% disease control)
CCCCCCCCCCNC1COC2(CCC(C(C)(C)C)CC2)C1 (centres unmarked) [Compound 42]	2 (greater than 80% disease control)	0 (less than 50% disease control)	0 (less than 50% disease control)	1 (about 50-80% disease control)	0 (less than 50% disease control)	2 (greater than 80% disease control)	0 (less than 50% disease control)	0 (less than 50% disease control)	0 (less than 50% disease control)	0 (less than 50% disease control)	2 (greater than 80% disease control)
CC(C)CCCC(C)NC1COC2(CCC(C(C)(C)C)CC2)C1 (centres unmarked) [Compound 107]	1 (about 50-80% disease control)	1 (about 50-80% disease control)	0 (less than 50% disease control)	1 (about 50-80% disease control)	0 (less than 50% disease control)	2 (greater than 80% disease control)	0 (less than 50% disease control)	2 (greater than 80% disease control)	0 (less than 50% disease control)	0 (less than 50% disease control)	2 (greater than 80% disease control)

Reference: patent US5591741A, “Fungicidal spiroheterocyclic derivatives” (American Cyanamid Company, priority 1993, dated 1997)
